Literature values, collected in PMC3591511 (Expert reviews in molecular medicine, 2012).
Each block holds one compound with its values, some of them ahead of it.

What was measured:
IL-2/IL-2Rα = details: antagonist of IL-2/IL-2α receptor interaction; ref [53]

SMILES: COc1ccc(C2=N[C@@H](c3ccc(Cl)cc3)[C@@H](c3ccc(Cl)cc3)N2C(=O)N2CCNC(=O)C2)c(OC(C)C)c1 [Nutlin-3]
activity towards the p53-MDM2 complex (p53-MDM2 complex; mid-nanomolar, enantioselective, ref [56]): ~ 70 nM

Ki (IL-2/IL-2Rα): 60 nM
SMILES: CC(C)C[C@@H](N=C(N)N)C(=O)NCC(=O)N1CCC(c2cc(-c3ccc(OCc4ccc(C(=O)O)o4)c(Cl)c3Cl)nn2C)CC1 [SP4206]

SMILES: CC(C)(C)C[C@H]1N[C@@H](C(=O)NCC[C@H](O)CO)[C@H](c2cccc(Cl)c2)[C@@]12C(=O)Nc1cc(Cl)c(F)cc12.Cl [MI-219]
inhibition of complex formation (p53-MDM2 complex; p53-MDM2, ref [58]): ~ 5 nM
